Our source for the IC50 values is patent US20260297080A1, “BICYCLIC COMPOUNDS AS CDK INHIBITORS” (BeOne Medicines I GmbH, priority 2022, published 2026).

The target of assay [1] is CDK1/Cyclin B1 (Homo sapiens, UniProt P06493). Briefly: CDK1/Cyclin B1 Biochemical Assay (TR-FRET), 0.015 mM ATP. Particulars: 0.15 μM Rb (Ser780)-biotin substrate, pH7.0, 60 min preincubation, 120 min reaction, room temperature. The method, boiled down:
(§1)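 Percent inhibition was derived from the 665 nm/620 nm TR-FRET ratio after a 120-minute room-temperature reaction on 0.15 μM Rb (Ser780)-biotin, preceded by 60-minute enzyme–compound preincubation. IC50 came from four-parameter logistic fitting.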

Assay [2] concerns the target CDK2/Cyclin E1 (Homo sapiens, UniProt P24941). The assay is described as follows: CDK2/Cyclin E1 Biochemical Assay (TR-FRET), 0.060 mM ATP. Particulars: 0.15 μM Rb (Ser780)-biotin substrate, pH7.0, 60 min preincubation, 120 min reaction, room temperature. Put shortly: as §1

Each structure is given as a SMILES string.

Chain of CDK1/Cyclin B1 (P06493 whole entry): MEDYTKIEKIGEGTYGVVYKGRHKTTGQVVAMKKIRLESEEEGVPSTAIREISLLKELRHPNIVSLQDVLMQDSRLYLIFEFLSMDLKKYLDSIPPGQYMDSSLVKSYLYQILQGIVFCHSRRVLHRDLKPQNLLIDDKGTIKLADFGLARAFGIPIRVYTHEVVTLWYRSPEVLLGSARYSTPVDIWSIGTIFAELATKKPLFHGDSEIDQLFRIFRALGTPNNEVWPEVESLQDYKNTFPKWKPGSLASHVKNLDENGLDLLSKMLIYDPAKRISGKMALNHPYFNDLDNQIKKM
Chain of CDK1/Cyclin B1 (P14635 whole entry partner): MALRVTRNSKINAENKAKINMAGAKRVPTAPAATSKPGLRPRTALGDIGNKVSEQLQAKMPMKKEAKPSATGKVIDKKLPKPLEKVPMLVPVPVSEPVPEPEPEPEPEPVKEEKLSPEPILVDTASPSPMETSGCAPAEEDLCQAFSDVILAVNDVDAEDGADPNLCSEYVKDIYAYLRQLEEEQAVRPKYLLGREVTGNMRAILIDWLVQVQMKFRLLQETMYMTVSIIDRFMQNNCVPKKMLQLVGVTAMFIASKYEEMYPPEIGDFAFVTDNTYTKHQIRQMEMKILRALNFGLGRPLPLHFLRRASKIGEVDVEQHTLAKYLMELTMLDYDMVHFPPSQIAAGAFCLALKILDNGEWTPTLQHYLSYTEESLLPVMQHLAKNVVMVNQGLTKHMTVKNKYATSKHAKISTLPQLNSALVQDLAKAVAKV

For `CC(C)NC(=O)O[C@H]1CC[C@@H](c2cc(Nc3ccc4c(c3F)CN(C3CN(S(C)(=O)=O)C3)S4(=O)=O)n[nH]2)C1` (relative stereo) [Example 89, cis-3-(3-((4-fluoro-2-(1-(methylsulfonyl)azetidin-3-yl)-1,1-dioxido-2,3-dihydrobenzo[d]isothiazol-5-yl)amino)-1H-pyrazol-5-yl)cyclopentyl isopropylcarbamate], the IC50 in assay [1] turned out to be 879 nM; in assay [2], 34 nM.

`CN1c2ccc(Nc3cc([C@@H]4CC[C@H](OC(=O)NC(C)(C)CO)C4)[nH]n3)cc2CS1(=O)=O` (single isomer, unassigned) [Example 325b, cis-3-(3-((1-methyl-2,2-dioxido-1,3-dihydrobenzo[c]isothiazol-5-yl)amino)-1H-pyrazol-5-yl)cyclopentyl(1-hydroxy-2-methylpropan-2-yl)carbamate]: the IC50 in assay [1] is 71 nM; in assay [2], 2.3 nM.

As to `CC1(NC(=O)O[C@H]2CC[C@@H](c3cc(Nc4ccc5c(c4F)CS(=O)(=O)N5)n[nH]3)C2)CC1` (single isomer, unassigned) [Example 388b], the IC50 in assay [1] stood at 21 nM; in assay [2], 1.3 nM.

As for `CC(C)NC(=O)O[C@H]1CC[C@@H](c2cc(Nc3ccc4c(c3F)CN(CC3CCC3)S4(=O)=O)n[nH]2)C1` (relative stereo) [Example 96, cis-3-(3-((2-(cyclobutylmethyl)-4-fluoro-1,1-dioxido-2,3-dihydrobenzo[d]isothiazol-5-yl)amino)-1H-pyrazol-5-yl)cyclopentyl isopropylcarbamate], the IC50 in assay [1] worked out at 2020 nM; in assay [2] it was 36 nM.

As for `CC1(NC(=O)O[C@H]2CC[C@@H](c3cc(Nc4ccc5c(c4F)CS(=O)(=O)N5CC(F)(F)F)n[nH]3)C2)COC1` (relative stereo) [Example 409, cis-3-(3-((4-fluoro-2,2-dioxido-1-(2,2,2-trifluoroethyl)-1,3-dihydrobenzo[c]isothiazol-5-yl)amino)-1H-pyrazol-5-yl)cyclopentyl(3-methyloxetan-3-yl)carbamate], the IC50 was 210 nM in assay [1] and 5.8 nM in assay [2].

Turning to `[2H]C([2H])([2H])C1c2cc(Nc3cc([C@@H]4CC[C@H](OC(=O)NC5(C)CC5)C4)[nH]n3)cc(F)c2N(C([2H])([2H])[2H])S1(=O)=O` (relative stereo) [Example 287, cis-3-(3-((7-fluoro-1,3-bis(methyl-d3)-2,2-dioxido-1,3-dihydrobenzo[c]isothiazol-5-yl)amino)-1H-pyrazol-5-yl)cyclopentyl(1-methylcyclopropyl)carbamate], the IC50 in assay [1] came out at 77 nM; in assay [2], 7.7 nM.

Regarding `CC(C)NC(=O)O[C@H]1CC[C@@H](c2cc(Nc3ccc4c(c3F)CN(C3CCNC3=O)S4(=O)=O)n[nH]2)C1` (relative stereo) [Example 79, cis-3-(3-((4-fluoro-1,1-dioxido-2-(2-oxopyrrolidin-3-yl)-2,3-dihydrobenzo[d]isothiazol-5-yl)amino)-1H-pyrazol-5-yl)cyclopentyl isopropylcarbamate], the results for the IC50 in assay [1] and in assay [2] were 638 nM and 8.3 nM, respectively.

As to `O=C(NC1CCCC1)O[C@H]1CC[C@@H](c2cc(Nc3ccc4c(c3F)CS(=O)(=O)N4)n[nH]2)C1` (single isomer, unassigned) [Example 400b], the IC50 in assay [1] was 64 nM; in assay [2] it was 3.4 nM.

Consider `CC(C)(C)NC(=O)O[C@H]1CC[C@@H](c2cc(Nc3cc4c(cc3F)S(=O)(=O)NC4)n[nH]2)C1` (single isomer, unassigned) [Example 395b], for which the IC50 in assay [1] was found to be 114 nM; in assay [2] it was 1.3 nM.

In the case of `[2H]C([2H])([2H])N1c2c(F)cc(Nc3cc([C@@H]4CC[C@H](OC(=O)NC(C)C)C4)[nH]n3)cc2CS1(=O)=O` (single isomer, unassigned) [Example 289a, cis-3-(3-((7-fluoro-1-(methyl-d3)-2,2-dioxido-1,3-dihydrobenzo[c]isothiazol-5-yl)amino)-1H-pyrazol-5-yl)cyclopentyl isopropylcarbamate], the IC50 stood at 196 nM in assay [1] and 10 nM in assay [2].

Regarding `[2H]C([2H])([2H])C1c2cc(Nc3cc([C@@H]4CC[C@H](OC(=O)N[C@@H](C)CC)C4)[nH]n3)cc(F)c2N(C([2H])([2H])[2H])S1(=O)=O` (relative stereo) [Example 286, cis-3-(3-((7-fluoro-1,3-bis(methyl-d3)-2,2-dioxido-1,3-dihydrobenzo[c]isothiazol-5-yl)amino)-1H-pyrazol-5-yl)cyclopentyl((S)-sec-butyl)carbamate], the IC50 in assay [1] stood at 174 nM; in assay [2] it was 11 nM.

Take `CC1(NC(=O)O[C@H]2CC[C@@H](c3cc(Nc4ccc5c(c4F)CS(=O)(=O)N5CC(F)(F)F)n[nH]3)C2)CC1` (single isomer, unassigned) [Example 264a, cis-3-(3-((4-fluoro-2,2-dioxido-1-(2,2,2-trifluoroethyl)-1,3-dihydrobenzo[c]isothiazol-5-yl)amino)-1H-pyrazol-5-yl)cyclopentyl(1-methylcyclopropyl)carbamate]: the half-maximal inhibitory concentration (IC50) in assay [1] came to 65 nM; in assay [2], 1.3 nM.

Turning to `CC(C)NC(=O)O[C@H]1CC[C@@H](c2cc(Nc3ccc4c(c3F)S(=O)(=O)NC4)n[nH]2)C1` (single isomer, unassigned) [Example 186b, cis-3-(3-((7-fluoro-1,1-dioxido-2,3-dihydrobenzo[d]isothiazol-6-yl)amino)-1H-pyrazol-5-yl)cyclopentyl isopropylcarbamate], the IC50 in assay [1] is 44 nM; in assay [2], 1.7 nM.

For the molecule `O=C(NCCC(F)(F)F)O[C@H]1CC[C@@H](c2cc(Nc3ccc4c(c3F)CNS4(=O)=O)n[nH]2)C1` (racemic) [Example 154, cis-3-(3-((4-fluoro-1,1-dioxido-2,3-dihydrobenzo[d]isothiazol-5-yl)amino)-1H-pyrazol-5-yl)cyclopentyl(3,3,3-trifluoropropyl)carbamate], the IC50 in assay [1] is 333 nM; in assay [2] it was 1.7 nM.

As to `C[C@@H](CO)NC(=O)O[C@H]1CC[C@@H](c2cc(Nc3ccc4c(c3F)CN(C)S4(=O)=O)n[nH]2)C1` (relative stereo) [Example 351, cis-3-(3-((4-fluoro-2-methyl-1,1-dioxido-2,3-dihydrobenzo[d]isothiazol-5-yl)amino)-1H-pyrazol-5-yl)cyclopentyl((S)-1-hydroxypropan-2-yl)carbamate], the IC50 is 658 nM in assay [1] and 40 nM in assay [2].

Regarding `CC(C)NC(=O)O[C@H]1CC[C@@H](c2cc(Nc3ccc4c(c3F)CN(C3CCN(S(C)(=O)=O)CC3)S4(=O)=O)n[nH]2)C1` (relative stereo) [Example 77, cis-3-(3-((4-fluoro-2-(1-(methylsulfonyl)piperidin-4-yl)-1,1-dioxido-2,3-dihydrobenzo[d]isothiazol-5-yl)amino)-1H-pyrazol-5-yl)cyclopentyl isopropylcarbamate], the results for the IC50 in assay [1] and in assay [2] were 621 nM and 10 nM, respectively.

Turning to `CC(NC(=O)O[C@H]1CC[C@@H](c2cc(Nc3ccc4c(c3F)CNS4(=O)=O)n[nH]2)C1)C1COC1` (relative stereo) [Example 147, cis-3-(3-((4-fluoro-1,1-dioxido-2,3-dihydrobenzo[d]isothiazol-5-yl)amino)-1H-pyrazol-5-yl)cyclopentyl(1-(oxetan-3-yl)ethyl)carbamate], the IC50 in assay [1] is 606 nM; in assay [2], 9.1 nM.

Consider `CC[C@H](C)NC(=O)O[C@H]1CC[C@@H](c2cc(Nc3ccc4c(c3F)S(=O)(=O)NC4)n[nH]2)C1` (relative stereo) [Example 188, cis-3-(3-((7-fluoro-1,1-dioxido-2,3-dihydrobenzo[d]isothiazol-6-yl)amino)-1H-pyrazol-5-yl)cyclopentyl((S)-sec-butyl)carbamate], for which the IC50 in assay [1] is 29 nM; in assay [2], 0.8 nM.

`CCCNC(=O)O[C@H]1CC[C@@H](c2cc(Nc3ccc4c(c3F)S(=O)(=O)NC4)n[nH]2)C1` (single isomer, unassigned) [Example 189b, cis-3-(3-((7-fluoro-1,1-dioxido-2,3-dihydrobenzo[d]isothiazol-6-yl)amino)-1H-pyrazol-5-yl)cyclopentyl propylcarbamate]: the IC50 stood at 41 nM in assay [1] and 2.7 nM in assay [2].

Turning to `CC1(NC(=O)O[C@H]2CC[C@@H](c3cc(Nc4ccc5c(c4F)CNS5(=O)=O)n[nH]3)C2)CCOC1` (mixture of isomers) [Example 162, cis-3-(3-((4-fluoro-1,1-dioxido-2,3-dihydrobenzo[d]isothiazol-5-yl)amino)-1H-pyrazol-5-yl)cyclopentyl(3-methyltetrahydrofuran-3-yl)carbamate], the figures for the IC50 in assay [1] and in assay [2] were 163 nM and 2.4 nM, respectively.

With `CC(C)NC(=O)O[C@H]1CC[C@@H](c2cc(Nc3ccc4c(c3F)CS(=O)(=O)N4CCO)n[nH]2)C1` (single isomer, unassigned) [Example 271a, cis-3-(3-((4-fluoro-1-(2-hydroxyethyl)-2,2-dioxido-1,3-dihydrobenzo[c]isothiazol-5-yl)amino)-1H-pyrazol-5-yl)cyclopentyl isopropylcarbamate], the IC50 in assay [1] came to 172 nM; in assay [2], 3.2 nM.

With `CC(C)NC(=O)O[C@H]1CC[C@@H](c2cc(Nc3ccc4c(c3)C(C)NS4(=O)=O)n[nH]2)C1` (single isomer, unassigned) [Example 321d, cis-3-(3-((3-methyl-1,1-dioxido-2,3-dihydrobenzo[d]isothiazol-5-yl)amino)-1H-pyrazol-5-yl)cyclopentyl isopropylcarbamate], the IC50 in assay [1] stood at 5.4 nM; in assay [2], 0.6 nM.
